Experimental data from patent publication US8628750B2, “Cancer imaging and treatment” (Technische Universitat Munchen, priority 2006, dated 2014).
Where two headings read alike, the source gives them in different places. Numbered stars: 1 amine (or outer) side, 2 acyl side, 3 side chain; on linkers, the order of the positions; unused ones are H or OH. Square brackets hold non-standard residues; d marks the D form. Peptide text beside a SMILES is read from it. * marks the point of attachment. X3 = O=C(c1ccc(F)cc1)N(CCC[C@H](N[*:1])C(=O)[*:2])Cc1ccccc1; X1 = CN(CCC[C@H](C(=O)[*:2])N(C)[*:1])C(=O)c1ccc(F)cc1; X2 = O=C([C@H](CCCNCc1cccc2ccccc12)N[*:1])[*:2]; X4 = O=C([C@H](CCCNCc1ccc2ccccc2c1)N[*:1])[*:2]; 2Nal = N[C@@H](Cc1ccc2ccccc2c1)C(=O)O; Benzoyl(4-F) = O=C(c1ccc(F)cc1)*; dOrn = NCCC[C@@H](N)C(=O)O; Orn = NCCC[C@H](N)C(=O)O

How the values were obtained:
human CXCR4 [1] = biological target: T1, human CXCR4 (Homo sapiens, UniProt P61073); test: cell-based; format: binding; parameters: Jurkat cells that endogenously express the CXCR4 receptor; endogenous in cells; host or cells: Jurkat (ATCC)
T1 sequence (P61073 whole entry): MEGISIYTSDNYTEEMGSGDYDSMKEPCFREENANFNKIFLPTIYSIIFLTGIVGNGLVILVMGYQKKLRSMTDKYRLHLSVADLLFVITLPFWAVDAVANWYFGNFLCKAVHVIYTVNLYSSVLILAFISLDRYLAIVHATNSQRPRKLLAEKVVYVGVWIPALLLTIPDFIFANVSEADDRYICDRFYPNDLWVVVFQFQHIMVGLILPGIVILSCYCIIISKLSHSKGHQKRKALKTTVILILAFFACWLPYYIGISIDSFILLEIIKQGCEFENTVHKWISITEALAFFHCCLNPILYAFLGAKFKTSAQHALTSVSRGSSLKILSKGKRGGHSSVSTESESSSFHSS
Experimental: For receptor binding assays cells were resuspended in PBS/0.2% BSA. A total of 200 μl of the suspension containing 400,000 cells (Jurkat, CMS5) or 200,000 cells (CMS5/CXCR4) were incubated with 25 μl of the tracer solution (containing 3.1 kBq, approx. 0.1 nM) and 25 μl of the diluent or the competitor at different concentrations. […] After shaking for 2 h at room temperature, the incubation was terminated by centrifugation at 700×g and 4° C. for 4 min. Cell pellets were washed once with cold PBS followed by a second centrifugation step or for internalization studies, two times with an acidic wash buffer (20 mM NaOAc, pH5.0). Cell bound radioactivity was determined by using a gamma counter. Experiments were repeated 2-3 times in duplicates or triplicates. IC50 values of the binding curves were calculated by nonlinear regression on a one-site or two-site competition based model using Prism 3.0 (Graph Pad Software, Inc, San Diego). KD and Bmax values were determined by nonlinear regression with the Prism 3.0 according to the manufacturer's protocol.

human CXCR4 [2] = biological target: T1, human CXCR4
Experimental: CXCR4 expression on the cell surface of trypsinized cells was determined using a phycoerythrine (PE)-labeled monoclonal rat antibody with specificity for human CXCR4 (1D9, BD Biosciences Pharmingen, Heidelberg, Germany). Trypsinized cells were washed with FACS buffer (PBS, 0.5% FCS) and 1×10^6 cells were stained with 0.5 μg antibody for 30 min. in the dark at 4° C. Cells were extensively washed with ice-cold FACS buffer and analyzed by flow cytometry. Nonspecific staining was assessed by PE-conjugated rat IgG2b,κ (BD Biosciences Pharmingen, Heidelberg, Germany). […] CXCR-4 staining was plotted against EGFP fluorescence (FL1).
(adapted from protocols published previously)[7, 8]; controls were incubated with diluent (PBS/0.1% BSA). Samples were immediately transferred to ice to avoid further internalization, centrifuged, washed with PBS/0.5% BSA and FACS staining for CXCR4 was performed as indicated above.

Compound | IC50 (human CXCR4 [1]) [µM] | further results
N=C(N)NCCC[C@@H]1NC(=O)[C@H](CCCNC(=N)N)NC(=O)[C@@H](Cc2ccc(O)cc2)NC(=O)CNC(=O)[C@H](Cc2ccc3ccccc3c2)NC(=O)[C@H](Cc2ccc3ccccc3c2)NC1=O [BL 42, cyc[D-Tyr-Arg-Arg-Nal-Nal-Gly]] (cyclo([2Nal][2Nal]G[dY]RR)) | > 1 | –
CN(CCC[C@@H]1C(=O)N[C@@H](CCCNC(=N)N)C(=O)N[C@@H](Cc2ccc3ccccc3c2)C(=O)NCC(=O)N[C@H](Cc2ccc(O)cc2)C(=O)N1C)C(=O)c1ccc(F)cc1 [cyc[D-Tyr-(Me)D-Orn(Me,FB)-Arg-Nal-Gly]] (cyclo([2Nal]G[dY][X1]R)) | 0.059 | –
N=C(N)NCCC[C@@H]1NC(=O)[C@@H](CCCNC(=O)c2ccc(F)cc2)NC(=O)[C@@H](Cc2ccc(O)cc2)NC(=O)CNC(=O)[C@H](Cc2ccc3ccccc3c2)NC1=O [cyc[D-Tyr-D-Orn(FB)-Arg-Nal-Gly]] (cyclo([2Nal]G[dY][dOrn](Benzoyl(4-F))R)) | 0.086 | –
N=C(N)NCCC[C@@H]1NC(=O)[C@H](CCCN(Cc2ccccc2)C(=O)c2ccc(F)cc2)NC(=O)[C@@H](Cc2ccc(O)cc2)NC(=O)CNC(=O)[C@H](Cc2ccc3ccccc3c2)NC1=O [cyc[D-Tyr-Orn(Bz,FB)-Arg-Nal-Gly]] (cyclo([2Nal]G[dY][X3]R)) | 0.1 | –
N=C(N)NCCC[C@@H]1NC(=O)[C@H](CCCNC(=O)c2ccc(F)cc2)NC(=O)[C@@H](Cc2ccc(O)cc2)NC(=O)CNC(=O)[C@H](Cc2ccc3ccccc3c2)NC1=O [cyc[D-Tyr-Orn(FB)-Arg-Nal-Gly]] (cyclo([dY][Orn](Benzoyl(4-F))R[2Nal]G)) | 0.011 | –
N=C(N)NCCC[C@@H]1NC(=O)[C@H](CCCNCc2cccc3ccccc23)NC(=O)[C@@H](Cc2ccc(O)cc2)NC(=O)CNC(=O)[C@H](Cc2ccc3ccccc3c2)NC1=O [cyc[D-Tyr-Orn(N1)-Arg-Nal-Gly]] (cyclo([dY][X2]R[2Nal]G)) | 0.04 ± 0.003 | –
N=C(N)NCCC[C@@H]1NC(=O)[C@H](CCCNCc2ccc3ccccc3c2)NC(=O)[C@@H](Cc2ccc(O)cc2)NC(=O)CNC(=O)[C@H](Cc2ccc3ccccc3c2)NC1=O [cyc[D-Tyr-Orn(N2)-Arg-Nal-Gly]] (cyclo([dY][X4]R[2Nal]G)) | 0.049 ± 0.001 | –
SDF-1α | – | cells stained positive for CXCR4 after pre-incubation (human CXCR4 [2]; CMS5/CXCR4 cells, 100 nM SDF-1α, 1 hr at 37° C., control-treated […]): 54.7%; mean fluorescence intensity of CXCR4 staining (human CXCR4 [2]; CMS5/CXCR4 cells, mock treated 209.0): 80.5; mean fluorescence intensity of CXCR4 staining (human CXCR4 [2]; Jurkat cells, drop from 385.4): 155.4; CXCR4-background staining (human CXCR4 [2]; parental CMS5 cells, in the presence of SDF-1α, from 7.9): 2.7%
